The subject of this assay is Oxford S. aureus. The assay is described as follows: Antimicrobial-spore binding: washed exposed spores on S. aureus lawn (Example 3D). The assay is classed as cell-based, Staphylococcus aureus. As to conditions: spores suspended in 350 mg/L; after 0, 1, 2, 4, 5, 6, 9 and 10 washes. The protocol: A further potential explanation for the failure to recover oritavancin-treated C. difficile spores from the above experiments (in addition to presence of the drug in cellulose acetate filters) is that oritavancin may be able to bind C. difficile spores and directly damage spores, or inhibit spore germination and/or outgrowth. A simple experiment was conducted in order to assess antimicrobial-spore binding:
Two solutions were prepared:
1) C. difficile spores (PCR ribotype 001, control), and
2) C. difficile spores suspended in 350 mg/L oritavancin (diluent: Tween-80-H2O).
Fresh blood agar was inoculated with a lawn of the Oxford S. aureus. In one replicate, C. difficile spores were centrifuged (16000 g, 5 min), the supernatants removed and pellets re-suspended in 500 μL of Tween-80-H2O. 10 μL of the re-suspended spore suspension was inoculated onto the surface S. aureus lawn.
In another replicate, C. difficile spore suspensions were washed a total of 10 times using this procedure and inoculated onto the surface of the S. aureus lawn.
In both replicates agar was incubated aerobically at 37° C. overnight, and then the presence or absence of zones of inhibition were recorded.

Experimental findings from US8629100B2, “Method of inhibiting clostridium difficile by administration of oritavancin” (The Medicines Company, priority 2007, dated 2014) are described below.

With `CN[C@H](CC(C)C)C(=O)N[C@H]1C(=O)N[C@@H](CC(N)=O)C(=O)N[C@H]2C(=O)N[C@H]3C(=O)N[C@H](C(=O)N[C@H](C(=O)O)c4cc(O)cc(O)c4-c4cc3ccc4O)[C@H](O[C@H]3C[C@](C)(N)[C@@H](O)[C@H](C)O3)c3ccc(c(Cl)c3)Oc3cc2cc(c3O[C@@H]2O[C@H](CO)[C@@H](O)[C@H](O)[C@H]2O[C@H]2C[C@](C)(NCc3ccc(-c4ccc(Cl)cc4)cc3)[C@@H](O)[C@H](C)O2)Oc2ccc(cc2Cl)[C@H]1O` [oritavancin, N-(4-(4-chlorophenyl)benzyl)A82846B], the “Effect of antibiotic-exposed C. difficile spores on growth of Oxford S. aureus” value is given as “inhibitory to growth”.
